# Key:
# [1] = test system: platelets; experiment: Reversible block of in vitro ADP- and collagen-induced aggregation by second messenger effectors; type: cell-based; settings: agonist (ADP, collagen)-induced
# From the text: The reversible inhibition induced by this formulation effectively reduces the development of the platelet storage lesion when platelets are cryopreserved. The following is a brief description of the second messenger pathways manipulated in order to control activation of platelets during storage, and the specific inhibitors used to abrogate the initiation of the respective pathways.
# [2] = test system: carboplatin-induced thrombocytopenia; experiment: Phase I/II study of subcutaneous rhTPO prior to and following carboplatin in gynecologic malignancy: hematologic effects; settings: for Number (%) of Patients Requiring Platelet Transfusions: Cycle-1 (Carboplatin) or Cycle-2 (Carboplatin+ rhTPO)
# From the text: Carboplatin is effective in advanced-stage platin-sensitive recurrent disease; however, cumulative thrombocytopenia is frequently dose-limiting. […] During dose-escalation phase, rhTPO was given by S.C. injection as a single dose (0.6, 1.2, 2.4, 3.6 mcg/kg) prior to carboplatin and for four doses following a second cycle of carboplatin. […]
# The inventor performed a phase I/II study of rhTPO prior to and following carboplatin in 29 patients with advanced gynecologic malignancy. During the dose-escalation phase, rhTPO was administered by subcutaneous injection as a single dose (0.6, 1.2, 2.4, and 3.6 mcg/kg) prior to carboplatin, and for four doses following a second cycle of carboplatin. During dose-expansion phase (n=12). rhTPO was used at the optimal biologic dose only as a secondary prophylaxis for severe thrombocytopenia.
# The study included two components, a dose-escalation (safety) component and dose-expansion (activity) component using the optimal dose. During the dose-escalation part of this trial, rhTPO was administered as a single dose by subcutaneous injection 3 weeks before chemotherapy in order to evaluate clinical tolerance and the hematopoietic effects of rhTPO alone. […] Thus Cycle- 1 (chemotherapy alone) served as an internal control for each patient for Cycle-2 (chemotherapy with rhTPO).
# At least three patients were entered at each dose level of rhTPO (0.6, 1.2, 2.4, and 3.6 mcg/m^2/d). […] In the subsequent cycles, rhTPO was used at OBD as a secondary prophylaxis by same schedule [days 2, 4, 6, 8 (n=6)] or by a modified schedule [days -1, 1, 3, 5 (n=6)]. The latter schedule was used to assess whether earlier administration of TPO can further augment the degree of protection.
# Patients received platelet transfusions for severe thrombocytopenia (i.e. platelet count <20,000/mm^3), RBC transfusions for anemia (i.e. hemoglobin [Hb]<8 gm/dL), and antibiotics for neutropenic fever (i.e. temperature ≥38.3°C and absolute neutrophil count <500/mm^3) or when clinically indicated. The use of G-CSF was not allowed during the first two cycles of chemotherapy, but was allowed in the later cycles (3 - 6) only if clinically indicated (i.e. as a secondary prophylaxis in those patients who experienced prolonged neutropenia or delayed neutrophil recovery).
# (§1) Before and during the course of the clinical trial, patients were monitored with complete history, physical examinations, and laboratory tests including complete blood cell counts, serum chemistry, urinalysis, chest X-ray, and electrocardiograph. Blood counts were performed three times a week until the expected nadir period was reached and then daily until the counts had recovered. Serum samples were examined for antibodies reactive to full length TPO three times prior to study and weekly while on study. Positive sera (optical density ratio ≥1.5) were further analyzed by anti-truncated TPO antibody assay, C-mpl blocking assay, and cell-proliferation biologic assay. Patients positive in all assays were considered to be at risk for antibody-induced thrombocytopenia. Bone marrow (BM) aspiration and biopsy were done in all patients before, and one week after rhTPO treatment, and in selected patients at a later time point (day 10 or 14) in the prechemotherapy cycle. Tumor response was evaluated by physical examination, tumor marker (CA-125) evaluation, and imaging studies performed at periodic intervals.
# Hematopoietic toxicity from Cycle-1 1 of chemotherapy (no rhTPO) was compared with the results from Cycle-2 (with rhTPO) by means of a paired T test for continuously measured variables.
# [3] = Phase I/II carboplatin study: clinical tolerance, adverse events, anti-TPO antibodies; type: in vivo, humans
# [4] = test system: gynecologic malignancy; experiment: Phase I/II carboplatin study: tumor response; type: in vivo, humans; settings: carboplatin AUC 11 with or without rhTPO, 25 evaluable patients
# Procedure: as §1
# [5] = test system: recurrent ovarian cancer; settings: 800 mg/m^2 without cytokine support, 30 patients (Ozols et al., 1987); cited from earlier work
# [6] = 22 patients, C-1 (C) or C-2 (C+T), mean ± SEM
# [7] = Cycle-1 Carboplatin alone or Cycle-2 Carboplatin + rhTPO, n=27
smiles,measurement,setting,value
Nc1ncnc2c1ncn2[C@@H]1O[C@H](CO)[C@@H](O)[C@H]1O [Adenosine],effect on in vitro aggregation of platelets,[1],reversibly inhibits
N=C(N)NC(=O)c1nc(Cl)c(N)nc1N [Amiloride],effect on in vitro aggregation of platelets,[1],effectively and reversibly blocks
N.N.O=C([O-])C1(C(=O)[O-])CCC1.[Pt+2] [Carboplatin],Nadir PLT,"[2]; 22 patients, all rhTPO doses, C-1 carboplatin alone (C), C-2 carboplatin + rhTPO (C+T), mean ± SEM",20 ±5 x10^3/mm^3
same,No. (%) of PTS transfused,"[2]; 22 patients, C-1 (C) or C-2 (C+T)",11 (50)
same,Days PLT <50 × 10^3/mm^3,[2]; [6],6.3 ±1.0 days
same,Days PLT <100 × 10^3/mm^3,[2]; [6],10.3 ± 1.3 days
same,Number (%) of Patients Requiring Platelet Transfusions,[2]; All Patients (0.6 - 3.6 mcg/kg) n=27,16 (59%)
same,Number (%) of Patients Requiring Platelet Transfusions,[2]; Optimal Biologic Dose (1.2 mcg/kg) n=16,12(75%)
same,incidence of thrombocytopenia requiring platelet transfusions,"[2]; cycle-1 without rhTPO, secondary prophylaxis patients",10 of 12
same,"Fever, number of patients",[3]; Cycle-1 Carboplatin alone n=27 or Cycle-2 Carboplatin + rhTPO n=27,12
same,"Anorexia, number of patients",[3]; [7],14
same,"Anorexia, number of patients experiencing grade ≥3 toxicity",[3]; [7],1
same,"Bone pain, number of patients",[3]; [7],7
same,"Chills, number of patients",[3]; [7],8
same,"Constipation, number of patients",[3]; [7],11
same,"Constipation, number of patients experiencing grade ≥3 toxicity",[3]; [7],2
same,"Diarrhea, number of patients",[3]; [7],8
same,"Diarrhea, number of patients experiencing grade ≥3 toxicity",[3]; [7],1
same,"Fatigue, number of patients",[3]; [7],12
same,"Fatigue, number of patients experiencing grade ≥3 toxicity",[3]; [7],10
same,"Headache, number of patients",[3]; [7],11
same,"Headache, number of patients experiencing grade ≥3 toxicity",[3]; [7],4
same,"Mucositis, number of patients",[3]; [7],4
same,"Myalgia, number of patients",[3]; [7],10
same,"Nausea, number of patients",[3]; [7],18
same,"Nausea, number of patients experiencing grade ≥3 toxicity",[3]; [7],3
same,"Vomiting, number of patients",[3]; [7],12
same,"Vomiting, number of patients experiencing grade ≥3 toxicity","[3]; Cycle-1 Carboplatin alone, n=27",1
same,major tumor response,[4],50%
same,Major responses,[5],27%
